Results: article PMC10307885, “A Phase 1/2 trial of SRA737 (a Chk1 inhibitor) administered orally in patients with advanced cancer” (British Journal of Cancer, 2023)

System: patients with advanced solid tumours
Assay: Phase 1/2 dose-escalation/expansion study: safety, TEAEs (NCI CTCAE v4.03), DLT, MTD, RP2D
Assay type: in vivo
Excerpt: The objectives of this first-in-human, Phase 1/2, open-label, dose-escalation study of SRA737 as a single agent were to establish the safety profile, define the maximum tolerated dose (MTD) and the recommended Phase 2 dose (RP2D) and schedule, and to evaluate preliminary efficacy in prospectively selected genetically defined patients enrolled in indication-specific expansion cohorts. Secondary objectives included defining the pharmacokinetic (PK) profile of SRA737.
The study used an accelerated titration design in dose escalation beginning with single subject dose-level cohorts. Doubling of the SRA737 dose was permitted in the subsequent cohort if a dose level was determined to be safe by the cohort review committee consisting of the lead investigator, study investigators representing the site(s) currently enrolling patients, and representatives of the study sponsor. In the event of any SRA737-related adverse event Grade 2 or greater toxicity during Cycle 1, the cohort was to be expanded to 3 to 6 subjects. Thereafter the study followed a rolling 6 design wherein once the first subject completed the 7-day observation period following the first dose of SRA737, subsequent subjects in that cohort started treatment. […] Enrolment of expansion cohorts at the highest dose level determined to be safe and tolerable was initiated prior to the completion of dose escalation and determination of MTD or RP2D.
A single dose of SRA737 was given at one visit on Day −7 to Day −4 (prior to the start of Cycle 1) for PK assessments. SRA737 was then administered orally on a continuous daily dosing schedule in 28-day cycles. An accelerated titration design was used with single-patient dose-escalation cohorts starting with 20 mg SRA737 administered once daily (QD) in the first cohort, with dose doubling in subsequent single-patient cohorts. If a patient had SRA737-related Grade 2 toxicity in a dose level cohort during Cycle 1, that cohort was expanded to 3 to 6 patients, and subsequent cohorts followed a rolling six design.
Patients were assessed for DLT from the first SRA737 dose (Day −7 to Day −4) until the end of Cycle 1 (up to 35 days).
Expansion cohorts including up to 20 patients with one of the 6 specified indication-specific tumour types, were treated at SRA737 doses selected by the cohort review committee based on all available safety and PK data; expansion doses were at or below the maximum tolerated dose (MTD) from the dose-escalation phase. Patients could continue treatment until disease progression or discontinuation from study due to unacceptable toxicity, investigator/sponsor decision, or withdrawal of consent.
Safety assessments including adverse events, laboratory parameters, electrocardiograms (ECGs), and echocardiograms were conducted throughout treatment and until 30 days after the last study treatment or initiation of new anticancer treatment.
The Safety Evaluable population included all patients who received at least one dose of SRA737.
The DLT window is defined from the first dose (Day -7 to Day -4) until the end of Cycle 1 (up to 35 days).
A DLT is defined as any highly probably or probably SRA737-related event of: […]

[1] = 1300 mg QD cohort, three patients enrolled
[2] = 49 patients treated at SRA737 doses >800 mg QD

N#Cc1cnc(Nc2cc(NC[C@H]3CNCCO3)c(C(F)(F)F)cn2)cn1 [SRA737, (R)-5-((4-((morpholin-2-ylmethyl)amino)-5-(trifluoromethyl)pyridin-2-yl)amino)pyr azine-2-carbonitrile]
Dose-limiting toxicity (DLT) (500 mg BID, one patient, four evaluable for DLT): Grade 4 thrombocytopenia
Grade 1–2 TEAEs of diarrhoea (800 mg SRA737 dose level): 68 % of patients
Grade 1–2 TEAEs of nausea (800 mg SRA737 dose level): 78 % of patients
Grade 1–2 TEAEs of vomiting (800 mg SRA737 dose level): 50 % of patients
patients with Grade 3 diarrhoea (GI toxicity above Grade 2) (800 mg dose level): one
Dose-limiting toxicities (DLTs) (1000 mg QD dose-escalation cohort (or any lower-dose cohorts)): No DLTs
patients requiring dose reduction to 600 mg due to GI intolerability (1000 mg QD, 10 evaluable patients): 3 patients
Grade 1–2 TEAEs of diarrhoea (1000 mg SRA737 dose level): 72 % of patients
Grade 1–2 TEAEs of nausea (1000 mg SRA737 dose level): 65 % of patients
Grade 1–2 TEAEs of vomiting (1000 mg SRA737 dose level): 63 % of patients
patients with Grade 3 diarrhoea (GI toxicity above Grade 2) (1000 mg dose level): 1 patient
patients with both Grade 3 nausea and vomiting (1000 mg dose level): single patient
patients with dose-limiting GI intolerability (Grade 1–2 nausea, vomiting, and/or diarrhoea) [1]: 2 patients
patients with dose-limiting Grade 3 neutropenia [1]: 1 patient
discontinued due to SRA737-related TEAEs (16 patients of 107): 15.0%
Adverse events leading to treatment discontinuation (34 patients of 107): 31.8%
Grade 3 or higher TEAE related to SRA737: fatigue [2]: 4%
Grade 3 or higher TEAE related to SRA737: neutropenia [2]: 10%
Grade 3 or higher TEAE related to SRA737: rash/rash maculopapular combined [2]: 6%
Any SRA737-related Grade ≥3 treatment-emergent adverse event (TEAE) (Overall (N = 107)): 33 (30.8) n (%)
Any SRA737-related treatment-emergent adverse event (TEAE), any grade (Overall (N = 107)): 98 (91.6) n (%)
SRA737-related TEAE of Grade 3 or higher: Aspartate aminotransferase increased (Overall (N = 107)): 2 (1.9) n (%)
SRA737-related TEAE of Grade 3 or higher: Diarrhoea (Overall (N = 107)): 2 (1.9) n (%)
SRA737-related TEAE of Grade 3 or higher: Dyspnoea (Overall (N = 107)): 2 (1.9) n (%)
SRA737-related TEAE of Grade 3 or higher: Fatigue (Overall (N = 107)): 2 (1.9) n (%)
SRA737-related TEAE of Grade 3 or higher: Lymphocyte count decreased (Overall (N = 107)): 3 (2.8) n (%)
SRA737-related TEAE of Grade 3 or higher: Neutropenia (Overall (N = 107)): 9 (8.4) n (%)
SRA737-related TEAE of Grade 3 or higher: Rash (Overall (N = 107)): 3 (2.8) n (%)
SRA737-related TEAE of Grade 3 or higher: Rash maculopapular (Overall (N = 107)): 3 (2.8) n (%)
SRA737-related TEAE of Grade 3 or higher: Thrombocytopenia (Overall (N = 107)): 3 (2.8) n (%)
SRA737-related TEAE of any grade: Anaemia (Overall (N = 107)): 16 (15.0) n (%)
SRA737-related TEAE of any grade: Decreased Appetite (Overall (N = 107)): 19 (17.8) n (%)
SRA737-related TEAE of any grade: Diarrhoea (Overall (N = 107)): 67 (62.6) n (%)
SRA737-related TEAE of any grade: Fatigue (Overall (N = 107)): 41 (38.3) n (%)
SRA737-related TEAE of any grade: Nausea (Overall (N = 107)): 64 (59.8) n (%)
SRA737-related TEAE of any grade: Neutropenia (Overall (N = 107)): 17 (15.9) n (%)
SRA737-related TEAE of any grade: Vomiting (Overall (N = 107)): 49 (45.8) n (%)
Any SRA737-related Grade ≥3 treatment-emergent adverse event (TEAE) (SRA737 dose > 800 mg (N = 49)): 19 (38.8) n (%)
Any SRA737-related treatment-emergent adverse event (TEAE), any grade (SRA737 dose > 800 mg (N = 49)): 47 (95.9) n (%)
SRA737-related TEAE of Grade 3 or higher: Aspartate aminotransferase increased (SRA737 dose > 800 mg (N = 49)): 0 n (%)
SRA737-related TEAE of Grade 3 or higher: Diarrhoea (SRA737 dose > 800 mg (N = 49)): 1 (2.0) n (%)
SRA737-related TEAE of Grade 3 or higher: Dyspnoea (SRA737 dose > 800 mg (N = 49)): 0 n (%)
SRA737-related TEAE of Grade 3 or higher: Fatigue (SRA737 dose > 800 mg (N = 49)): 2 (4.1) n (%)
SRA737-related TEAE of Grade 3 or higher: Lymphocyte count decreased (SRA737 dose > 800 mg (N = 49)): 0 n (%)
SRA737-related TEAE of Grade 3 or higher: Neutropenia (SRA737 dose > 800 mg (N = 49)): 5 (10.2) n (%)
